Values of other authors as cited in patent publication US11278512B2, “Compositions comprising a metal and L-serine, and uses thereof” (Brain Chemistry Labs, priority 2019, dated 2022).

Experiments:
[1] = tested on: neurofibrillary tangles (NFTs) and β-amyloid plaques
[2] = design: reduction in ALSFRS (Amyotrophic Lateral Sclerosis Functional Rating Scale): dose or concentration left out as unconfirmed

N[C@@H](CO)C(=O)O [L-serine]
BMAA-induced microglial activation and proteinopathies along the spine, including deposition of TDP-43 and FUS ([1]; BMAA-induced): blocks | density of neurofibrillary tangles (NFTs) and β-amyloid plaques in the brain ([1]; non-human primates): decreases the density | misincorporation of BMAA into human neuroproteins; protein misfolding, aggregation and apoptosis induced by BMAA (human neuroproteins): blocks misincorporation

[Zn] [Zinc, zinc]
reduction in ALSFRS (Amyotrophic Lateral Sclerosis Functional Rating Scale) ([2]; daily dosing with for three months, approximates the reduction achieved by Riluzole): ~30% | safety when administered to ALS patients ([2]; up to 90 mg/day): safe
